Key:
[1] = target: Serine/threonine-protein kinase NIM1 (Homo sapiens, UniProt Q8IY84); test: Selectivity interaction (KinomeScan (DiscoverX)) EUB0001079a NIM1K; conditions: at 1 µM
[2] = target: Mitogen-activated protein kinase kinase kinase kinase 5 (Homo sapiens) (UniProt Q9Y4K4); conditions: at 10 µM
[3] = target: Mitogen-activated protein kinase 1 (Homo sapiens, UniProt P28482); conditions: at 10 µM
[4] = target: Death-associated protein kinase 1 (Homo sapiens, UniProt P53355); test: Selectivity interaction (Kinase panel (DSF assay)) EUB0001559a DAPK1
[5] = target: Serine/threonine-protein kinase PRP4 homolog (Homo sapiens) (UniProt Q13523); test: Selectivity interaction (ActivX KiNativ screen (kinase selectivity in THP-1 cell lysates)) EUB0000639a PRPF4; type: subcellular; conditions: lysate, at 0.01 µM
[6] = target: T1, Dual specificity mitogen-activated protein kinase kinase 6 (Homo sapiens) (UniProt P52564); test: Selectivity interaction (KinomeScan (DiscoverX)) EUB0000595a MAP2K6; conditions: at 10 µM
T1 sequence (whole entry): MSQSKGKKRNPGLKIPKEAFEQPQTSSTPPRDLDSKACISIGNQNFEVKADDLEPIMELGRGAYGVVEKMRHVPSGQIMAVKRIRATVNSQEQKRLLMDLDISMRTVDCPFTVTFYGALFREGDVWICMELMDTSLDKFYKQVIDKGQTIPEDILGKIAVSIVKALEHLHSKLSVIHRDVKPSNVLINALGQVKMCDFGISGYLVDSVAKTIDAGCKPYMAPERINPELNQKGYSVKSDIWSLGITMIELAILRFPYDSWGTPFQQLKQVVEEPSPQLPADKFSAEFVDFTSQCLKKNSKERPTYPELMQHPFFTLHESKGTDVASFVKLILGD

[7] = target: Mitogen-activated protein kinase 14 (Homo sapiens, UniProt Q16539); test: Selectivity interaction (KinomeScan (DiscoverX)) EUB0000092b MAPK14; conditions: at 10 µM
[8] = target: T2, Histone-arginine methyltransferase CARM1 (Homo sapiens, UniProt Q86X55); test: Selectivity interaction (Western Blot (dimethylation of BAF155 (BAF155me2a/BAF155) in U266B1 cells)) EUB0000255b CARM1; type: cell-based, U-266
T2 sequence (Q86X55 whole entry): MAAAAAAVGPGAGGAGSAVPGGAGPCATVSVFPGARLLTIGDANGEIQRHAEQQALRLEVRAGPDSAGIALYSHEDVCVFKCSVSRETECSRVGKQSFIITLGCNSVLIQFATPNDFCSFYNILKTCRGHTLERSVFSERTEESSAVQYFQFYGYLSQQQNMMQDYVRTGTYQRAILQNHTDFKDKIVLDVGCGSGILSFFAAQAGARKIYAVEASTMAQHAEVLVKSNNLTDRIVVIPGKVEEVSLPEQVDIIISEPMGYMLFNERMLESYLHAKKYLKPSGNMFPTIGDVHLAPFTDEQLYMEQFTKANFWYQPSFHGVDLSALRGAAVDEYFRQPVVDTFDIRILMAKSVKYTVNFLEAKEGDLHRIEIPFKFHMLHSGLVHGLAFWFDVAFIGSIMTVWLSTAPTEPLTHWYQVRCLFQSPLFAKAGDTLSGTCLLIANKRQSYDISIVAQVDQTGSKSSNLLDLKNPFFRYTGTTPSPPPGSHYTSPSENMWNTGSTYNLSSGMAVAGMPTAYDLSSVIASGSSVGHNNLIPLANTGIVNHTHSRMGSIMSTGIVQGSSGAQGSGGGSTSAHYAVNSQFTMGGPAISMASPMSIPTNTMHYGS

[9] = target: Casein kinase I isoform alpha (Homo sapiens, UniProt P48729); test: Selectivity interaction (KinomeScan (DiscoverX)) EUB0000618a CSNK1A1; conditions: at 10 µM
[10] = target: Tyrosine-protein kinase BTK (Homo sapiens, UniProt Q06187); test: Selectivity interaction (KinomeScan (DiscoverX)) EUB0000655a BTK; conditions: at 10 µM
[11] = target: T3, Serine/threonine-protein kinase MAK (Homo sapiens) (UniProt P20794); test: Selectivity interaction (KinomeScan (DiscoverX)) EUB0000695a MAK; conditions: at 100 nM
T3 sequence (whole entry): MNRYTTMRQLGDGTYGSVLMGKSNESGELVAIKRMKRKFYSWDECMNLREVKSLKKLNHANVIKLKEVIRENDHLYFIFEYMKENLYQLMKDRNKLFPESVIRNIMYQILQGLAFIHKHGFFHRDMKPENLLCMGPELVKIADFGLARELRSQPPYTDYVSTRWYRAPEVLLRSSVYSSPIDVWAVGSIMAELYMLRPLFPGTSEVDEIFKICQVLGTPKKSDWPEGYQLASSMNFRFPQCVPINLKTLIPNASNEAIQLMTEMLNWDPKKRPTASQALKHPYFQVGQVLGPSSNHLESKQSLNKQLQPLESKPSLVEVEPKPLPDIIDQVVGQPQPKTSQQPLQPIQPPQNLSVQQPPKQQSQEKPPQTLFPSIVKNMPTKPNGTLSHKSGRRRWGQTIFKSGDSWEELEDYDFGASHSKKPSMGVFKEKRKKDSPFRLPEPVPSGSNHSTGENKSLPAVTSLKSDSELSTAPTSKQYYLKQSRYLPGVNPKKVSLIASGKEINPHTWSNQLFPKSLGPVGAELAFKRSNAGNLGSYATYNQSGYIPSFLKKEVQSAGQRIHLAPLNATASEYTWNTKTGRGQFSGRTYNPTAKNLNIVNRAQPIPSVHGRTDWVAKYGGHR

[12] = target: T4, Testis-specific serine/threonine-protein kinase 1 (Homo sapiens) (UniProt Q9BXA7); test: Selectivity interaction (KinomeScan (DiscoverX)) EUB0000695a TSSK1B; conditions: at 100 nM
T4 sequence (whole entry): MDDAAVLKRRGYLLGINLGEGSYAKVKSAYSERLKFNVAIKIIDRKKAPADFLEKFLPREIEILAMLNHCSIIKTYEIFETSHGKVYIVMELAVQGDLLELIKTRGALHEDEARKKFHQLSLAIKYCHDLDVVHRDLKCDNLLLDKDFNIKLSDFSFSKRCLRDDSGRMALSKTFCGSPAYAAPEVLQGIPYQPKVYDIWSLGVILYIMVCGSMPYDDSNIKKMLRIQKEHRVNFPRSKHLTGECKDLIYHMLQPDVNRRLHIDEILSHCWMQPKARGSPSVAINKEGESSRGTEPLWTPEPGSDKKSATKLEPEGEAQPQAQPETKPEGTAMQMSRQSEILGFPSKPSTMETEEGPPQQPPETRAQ

[13] = target: Angiopoietin-1 receptor (Homo sapiens) (UniProt Q02763); test: Selectivity interaction (KinomeScan (DiscoverX)) EUB0000607a TEK; conditions: at 10 µM
[14] = target: Serine/threonine-protein kinase 33 (Homo sapiens) (UniProt Q9BYT3); test: Selectivity interaction (LanthaScreen Eu Kinase Binding Assay) EUB0001632a STK33; conditions: at 10 µM
[15] = target: Calcium/calmodulin-dependent protein kinase type II subunit gamma (Homo sapiens) (UniProt Q13555); test: Selectivity interaction (ProQinase) EUB0000171b CAMK2G
Chain of Calcium/calmodulin-dependent protein kinase type II subunit gamma (Homo sapiens) (Q13555 whole entry): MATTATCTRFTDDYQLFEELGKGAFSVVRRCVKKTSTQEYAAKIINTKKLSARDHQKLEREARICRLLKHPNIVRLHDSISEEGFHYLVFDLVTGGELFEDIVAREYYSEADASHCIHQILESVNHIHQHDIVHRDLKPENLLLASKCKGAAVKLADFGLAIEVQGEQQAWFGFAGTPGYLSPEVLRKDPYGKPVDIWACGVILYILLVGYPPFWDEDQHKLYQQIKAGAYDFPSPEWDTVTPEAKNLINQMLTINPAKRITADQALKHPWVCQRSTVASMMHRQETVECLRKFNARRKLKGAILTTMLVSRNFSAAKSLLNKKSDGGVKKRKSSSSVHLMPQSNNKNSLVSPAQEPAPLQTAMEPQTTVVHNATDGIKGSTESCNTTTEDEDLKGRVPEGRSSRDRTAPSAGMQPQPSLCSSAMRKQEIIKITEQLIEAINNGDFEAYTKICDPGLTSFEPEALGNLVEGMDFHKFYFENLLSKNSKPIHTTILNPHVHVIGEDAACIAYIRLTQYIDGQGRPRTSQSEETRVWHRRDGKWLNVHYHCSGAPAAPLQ

Chain of Serine/threonine-protein kinase 33 (Homo sapiens) (Q9BYT3 whole entry, looked up): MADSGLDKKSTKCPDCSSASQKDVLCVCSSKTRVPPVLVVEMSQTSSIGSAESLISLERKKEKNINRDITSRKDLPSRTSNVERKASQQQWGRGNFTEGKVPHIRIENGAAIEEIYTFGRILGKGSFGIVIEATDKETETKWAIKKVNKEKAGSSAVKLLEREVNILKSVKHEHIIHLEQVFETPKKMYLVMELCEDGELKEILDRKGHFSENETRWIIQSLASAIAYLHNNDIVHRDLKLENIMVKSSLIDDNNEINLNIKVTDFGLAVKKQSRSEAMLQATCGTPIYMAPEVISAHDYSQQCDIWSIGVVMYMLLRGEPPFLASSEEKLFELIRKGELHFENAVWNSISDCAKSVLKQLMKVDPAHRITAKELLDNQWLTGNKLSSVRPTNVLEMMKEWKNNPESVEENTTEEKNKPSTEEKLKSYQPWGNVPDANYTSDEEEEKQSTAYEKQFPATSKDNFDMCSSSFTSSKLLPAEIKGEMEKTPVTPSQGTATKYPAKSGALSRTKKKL
Chain of Serine/threonine-protein kinase NIM1 (Q8IY84 whole entry): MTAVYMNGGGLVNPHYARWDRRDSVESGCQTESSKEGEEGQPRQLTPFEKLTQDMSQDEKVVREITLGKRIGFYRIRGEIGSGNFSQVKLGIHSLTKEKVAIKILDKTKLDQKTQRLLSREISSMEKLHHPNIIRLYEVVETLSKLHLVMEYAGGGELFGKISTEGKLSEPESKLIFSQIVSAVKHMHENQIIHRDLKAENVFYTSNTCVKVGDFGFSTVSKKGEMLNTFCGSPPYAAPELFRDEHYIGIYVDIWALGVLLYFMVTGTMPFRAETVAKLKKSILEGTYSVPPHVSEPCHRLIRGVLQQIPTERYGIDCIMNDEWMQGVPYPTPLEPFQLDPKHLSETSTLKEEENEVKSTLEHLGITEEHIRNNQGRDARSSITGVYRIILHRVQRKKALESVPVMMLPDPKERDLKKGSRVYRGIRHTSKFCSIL
Chain of Serine/threonine-protein kinase PRP4 homolog (Homo sapiens) (Q13523 whole entry): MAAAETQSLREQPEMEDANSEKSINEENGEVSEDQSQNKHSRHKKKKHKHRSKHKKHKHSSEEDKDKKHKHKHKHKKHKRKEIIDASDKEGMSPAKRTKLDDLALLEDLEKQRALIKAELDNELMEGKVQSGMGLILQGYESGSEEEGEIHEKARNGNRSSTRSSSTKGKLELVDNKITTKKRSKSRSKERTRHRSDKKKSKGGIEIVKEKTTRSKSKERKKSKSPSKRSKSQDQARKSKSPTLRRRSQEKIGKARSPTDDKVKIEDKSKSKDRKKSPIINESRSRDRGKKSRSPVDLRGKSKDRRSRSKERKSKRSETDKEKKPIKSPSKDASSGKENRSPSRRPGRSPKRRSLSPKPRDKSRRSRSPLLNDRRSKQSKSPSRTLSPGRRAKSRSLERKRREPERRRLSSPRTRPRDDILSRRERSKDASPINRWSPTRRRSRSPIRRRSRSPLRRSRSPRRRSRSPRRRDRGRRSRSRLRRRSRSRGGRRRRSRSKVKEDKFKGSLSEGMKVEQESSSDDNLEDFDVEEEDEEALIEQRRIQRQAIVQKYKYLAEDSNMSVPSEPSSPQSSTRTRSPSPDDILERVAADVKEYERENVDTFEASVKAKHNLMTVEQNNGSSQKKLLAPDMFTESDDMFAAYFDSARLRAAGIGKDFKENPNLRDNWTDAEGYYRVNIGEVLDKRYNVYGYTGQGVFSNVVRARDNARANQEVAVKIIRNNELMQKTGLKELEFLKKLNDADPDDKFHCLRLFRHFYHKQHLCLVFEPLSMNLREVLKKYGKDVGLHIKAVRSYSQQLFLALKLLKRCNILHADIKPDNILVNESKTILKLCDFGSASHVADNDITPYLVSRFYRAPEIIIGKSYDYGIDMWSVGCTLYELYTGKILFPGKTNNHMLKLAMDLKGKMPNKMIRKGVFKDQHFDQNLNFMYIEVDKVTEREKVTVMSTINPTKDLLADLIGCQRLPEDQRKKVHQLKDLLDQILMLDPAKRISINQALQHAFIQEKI
Chain of Mitogen-activated protein kinase kinase kinase kinase 5 (Homo sapiens) (Q9Y4K4 whole entry, looked up): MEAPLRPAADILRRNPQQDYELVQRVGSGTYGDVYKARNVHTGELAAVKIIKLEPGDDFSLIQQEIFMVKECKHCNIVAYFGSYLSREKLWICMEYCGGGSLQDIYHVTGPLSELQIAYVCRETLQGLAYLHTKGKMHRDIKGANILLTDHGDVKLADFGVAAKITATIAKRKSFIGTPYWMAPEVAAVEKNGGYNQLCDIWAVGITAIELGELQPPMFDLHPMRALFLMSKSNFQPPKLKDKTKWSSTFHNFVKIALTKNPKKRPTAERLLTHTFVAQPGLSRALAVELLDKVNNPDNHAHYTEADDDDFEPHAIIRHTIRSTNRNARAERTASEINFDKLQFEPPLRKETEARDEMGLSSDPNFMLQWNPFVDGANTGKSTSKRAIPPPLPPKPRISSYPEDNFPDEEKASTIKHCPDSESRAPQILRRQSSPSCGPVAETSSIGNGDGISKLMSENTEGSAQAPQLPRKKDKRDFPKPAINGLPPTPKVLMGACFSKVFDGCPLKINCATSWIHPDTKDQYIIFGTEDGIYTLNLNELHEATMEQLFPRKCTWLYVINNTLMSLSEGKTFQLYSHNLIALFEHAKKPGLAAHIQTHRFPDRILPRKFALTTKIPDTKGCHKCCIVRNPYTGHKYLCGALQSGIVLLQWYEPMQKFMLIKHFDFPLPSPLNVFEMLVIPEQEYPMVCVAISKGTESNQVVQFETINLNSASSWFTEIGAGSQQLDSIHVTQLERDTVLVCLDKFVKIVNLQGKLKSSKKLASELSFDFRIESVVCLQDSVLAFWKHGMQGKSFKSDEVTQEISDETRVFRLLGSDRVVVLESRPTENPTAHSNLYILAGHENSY
Chain of Angiopoietin-1 receptor (Homo sapiens) (Q02763 whole entry): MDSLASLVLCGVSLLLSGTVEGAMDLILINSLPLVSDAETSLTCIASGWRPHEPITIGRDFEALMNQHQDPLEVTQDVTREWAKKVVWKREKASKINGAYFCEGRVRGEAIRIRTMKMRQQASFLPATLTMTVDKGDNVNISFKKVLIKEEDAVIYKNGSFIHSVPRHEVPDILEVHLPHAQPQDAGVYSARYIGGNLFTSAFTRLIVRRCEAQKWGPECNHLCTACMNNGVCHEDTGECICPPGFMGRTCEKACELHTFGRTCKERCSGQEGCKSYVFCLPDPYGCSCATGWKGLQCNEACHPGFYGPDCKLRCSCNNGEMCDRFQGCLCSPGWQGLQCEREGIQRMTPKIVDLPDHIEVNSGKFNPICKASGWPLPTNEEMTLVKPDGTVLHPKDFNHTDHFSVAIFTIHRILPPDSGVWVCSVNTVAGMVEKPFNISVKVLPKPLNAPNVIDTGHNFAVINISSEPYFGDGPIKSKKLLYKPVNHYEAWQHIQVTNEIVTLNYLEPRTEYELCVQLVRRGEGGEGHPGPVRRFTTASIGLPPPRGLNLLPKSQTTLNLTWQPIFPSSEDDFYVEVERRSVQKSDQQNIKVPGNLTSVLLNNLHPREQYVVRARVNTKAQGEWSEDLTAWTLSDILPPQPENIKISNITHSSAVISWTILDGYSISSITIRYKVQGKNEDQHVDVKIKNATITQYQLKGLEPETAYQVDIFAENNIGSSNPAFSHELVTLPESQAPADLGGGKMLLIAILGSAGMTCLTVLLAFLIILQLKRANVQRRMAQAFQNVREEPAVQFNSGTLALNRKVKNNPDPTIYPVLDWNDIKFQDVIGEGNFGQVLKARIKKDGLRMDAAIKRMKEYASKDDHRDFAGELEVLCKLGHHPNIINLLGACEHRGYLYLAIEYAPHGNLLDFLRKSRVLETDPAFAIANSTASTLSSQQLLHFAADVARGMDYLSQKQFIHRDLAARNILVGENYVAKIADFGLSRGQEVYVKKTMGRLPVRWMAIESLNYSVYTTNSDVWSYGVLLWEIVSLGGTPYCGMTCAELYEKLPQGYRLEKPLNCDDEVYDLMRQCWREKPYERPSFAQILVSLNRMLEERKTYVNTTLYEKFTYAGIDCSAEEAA
Chain of Mitogen-activated protein kinase 14 (Q16539 whole entry): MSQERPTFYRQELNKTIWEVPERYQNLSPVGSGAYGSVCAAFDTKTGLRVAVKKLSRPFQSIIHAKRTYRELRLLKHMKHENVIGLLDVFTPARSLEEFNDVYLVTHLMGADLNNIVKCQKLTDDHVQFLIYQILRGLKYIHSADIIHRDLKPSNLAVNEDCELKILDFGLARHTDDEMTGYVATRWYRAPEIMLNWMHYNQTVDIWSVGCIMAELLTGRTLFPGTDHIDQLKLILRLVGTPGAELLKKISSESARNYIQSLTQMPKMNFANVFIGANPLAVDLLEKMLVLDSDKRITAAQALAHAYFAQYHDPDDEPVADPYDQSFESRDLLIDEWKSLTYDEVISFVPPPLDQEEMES

Nc1cnc(N2CCc3cc(S(=O)(=O)Nc4c(F)cc(Cl)cc4F)cc(N4CCCC4=O)c32)nc1 [TP-020n]
% of control [1]: 100%

CCN(CC)CCCCNc1ncc2cc(-c3cc(OC)cc(OC)c3)c(NC(=O)NC(C)(C)C)nc2n1
% of control [2]: 100%
% of control [3]: 100%

CN(C(=O)c1cnn2cccnc12)c1cc2c(cc1N1CCOCC1)C(=O)N(C[C@@H](F)C(C)(C)O)C2
dTM [4]: -0.3 K

CC[C@@H]1[C@H](F)C(=O)N[C@@H]1COc1nccc2cc(C(N)=O)c(OC)cc12 [ZIMLOVISERTIB]
% of inhibition [5]: 11%

COCC(=O)NC/C=C/c1ccc2ncnc(Nc3ccc(Oc4ccc(C)nc4)c(C)c3)c2c1 [CP-724714]
% of control [6]: 93%

CCC(=O)N1CCN(c2ccc(-n3c(=O)ccc4cnc5ccc(-c6cnc7ccccc7c6)cc5c43)cc2C(F)(F)F)CC1
% of control [7]: 90%

COCCN1CCC(c2cc(CN(C)C(=O)c3cccc(Oc4ccccc4)c3)ccn2)CC1
IC50 [8]: > 3 nM

O[C@H]1CC[C@H](Nc2ncc3nc(Nc4c(F)cc(F)cc4F)n([C@H]4CCOC4)c3n2)CC1
% of control [9]: 100%

CN(C)CCOc1ccc(-c2nc(-c3ccncc3)c(-c3ccc4c(c3)CC/C4=N\O)[nH]2)cc1
% of control [10]: 92%

Cc1cc(F)c(C(=O)Nc2cccc(-c3nncn3C(C)C)n2)cc1-n1cnc(C2CC2)c1
% of control [11]: 100%
% of control [12]: 100%

CNC(=O)Nc1ccc(-c2nc(N3CC4CCC(C3)O4)c3cnn(C4CCC5(CC4)OCCO5)c3n2)cc1
% of control [13]: 100%

Cn1cc(-n2cnc3c(NCc4nc5cc(Cl)c(Cl)cc5[nH]4)nc(N4CCOCC4)nc32)cn1
% of inhibition [14]: -17.6%

C=CC(=O)Nc1cccc(C(=O)Nc2ccc(Nc3cc(-c4[nH]c(SC)nc4C)ccn3)cc2)c1
% of control ([15]; at 1 µM): 81%
% of control ([15]; at 5 µM): 54%

Reference: ChEMBL document CHEMBL5465560, “Selectivity Literature for EUbOPEN Chemogenomic Library” (2024)
